{"source": "patent US20230085721A1", "about": "“PIGMENT COMPRISING RAPHANUS SATIVUS EXTRACT AND MONTMORILLONITE” (GIVAUDAN SA, priority 2020, published 2023)", "tested_on": "human normal keratinocytes (NHEKs)", "test": "ROS production after oxidative stress (DCFH-DA method)", "type": "cell-based", "settings": "200 μM", "description": "The anti-oxidant properties of Raphanus sativus L. root extract was evaluated using human normal keratinocytes (NHEKs) by quantification of Reactive Oxygen Species (ROS) production after oxidative stress exposure according to the dichlorodihydrofluorescein diacetate (DCFH-DA; “Dichloro-dihydro-fluorescein diacetate (DCFH-DA) assay: a quantitative method for oxidative stress assessment of nanoparticle-treated cells”. Aranda et al. Toxicol In Vitro. 2013, 27(2):954-63.) method. In contact with cells, DCFH-DA is cleaved inside the cell to DCFH which is able to interact with reactive oxygen species (ROS) during oxidative stress leading to fluorescence emission. Consequently, the fluorescence emitted is correlated to the antioxidant property of the tested compound. The cell culture was done on primary cells freshly isolated from biopsies. Normal Human Epidermal Keratinocytes (NHEKs) were seeded in a black plate with a glass bottom at 20′000 cells per well in 96-wells plates with a type I collagen pre-coating in quadruplicate. The cells were incubated for 24 hours in complete medium (Epilife medium supplemented with HKGS) at 37° C. with 5% CO2. […] Finally, the emitted fluorescence was measured in darkness by excitation wavelength at 488 nm and emission wavelength at 525 nm with microplate reader (TECAN). […]", "note": "Marks after values point to notes of the source that are not given here.", "data": [{"smiles": "Oc1ccc(C=Cc2cc(O)cc(O)c2)cc1", "note": "[Resveratrol]", "values": [{"measurement": "Comparison to oxidative stress, no active", "setting": "5 mM TBP, p < 0.001", "value": "−76", "unit": "%***"}, {"measurement": "Mean relative to TBP condition", "setting": "ROS, NHEKs, oxidative stress 5 mM TBP", "value": 24.0, "unit": "%"}]}]}
